The source made the active and inactive calls. The calls are words filed in the database; no cut-off is given here. A value given as a limit tells only on which side of the number the result lay.

We go through three compounds from ChEMBL document CHEMBL4304775, “Identification and characterization of a novel chemotype for human TLR8 inhibitors” (Eur J Med Chem, 2019).

Experiment [1] deals with Toll-like receptor 4 (Homo sapiens) (UniProt O00206). Nature of the experiment: […] at TLR4 in human THP1 cells assessed as inhibition of LPS-induced IL-8 secretion preincubated for 1 hr followed by LPS-stimulation and measured after 24 hrs by ELISA. Type of experiment: cell-based.
Toll-like receptor 4 (Homo sapiens), sequence (O00206 whole entry): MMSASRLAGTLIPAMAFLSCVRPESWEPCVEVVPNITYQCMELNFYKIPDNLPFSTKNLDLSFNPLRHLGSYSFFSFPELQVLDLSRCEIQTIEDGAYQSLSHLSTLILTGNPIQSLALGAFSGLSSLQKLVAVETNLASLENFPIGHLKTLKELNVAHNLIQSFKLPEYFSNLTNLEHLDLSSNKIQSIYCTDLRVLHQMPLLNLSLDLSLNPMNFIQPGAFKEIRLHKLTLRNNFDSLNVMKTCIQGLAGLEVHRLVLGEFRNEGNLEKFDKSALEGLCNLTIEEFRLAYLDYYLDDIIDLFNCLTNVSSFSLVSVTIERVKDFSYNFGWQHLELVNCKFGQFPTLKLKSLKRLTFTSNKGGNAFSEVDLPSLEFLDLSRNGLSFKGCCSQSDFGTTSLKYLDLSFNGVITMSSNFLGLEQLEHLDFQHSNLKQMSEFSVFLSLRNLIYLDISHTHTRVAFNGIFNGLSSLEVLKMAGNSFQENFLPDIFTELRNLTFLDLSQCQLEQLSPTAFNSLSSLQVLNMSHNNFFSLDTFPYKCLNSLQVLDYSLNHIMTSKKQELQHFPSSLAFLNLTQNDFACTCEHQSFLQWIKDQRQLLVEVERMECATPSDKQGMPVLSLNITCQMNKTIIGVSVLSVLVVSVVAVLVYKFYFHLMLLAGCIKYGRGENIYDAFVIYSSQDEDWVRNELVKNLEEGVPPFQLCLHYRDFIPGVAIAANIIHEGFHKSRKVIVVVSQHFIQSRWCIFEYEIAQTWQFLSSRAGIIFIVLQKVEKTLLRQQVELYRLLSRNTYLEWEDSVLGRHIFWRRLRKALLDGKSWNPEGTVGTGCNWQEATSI
The target in experiment [2] is T1, Toll-like receptor 8 (Homo sapiens) (UniProt Q9NR97).
T1 sequence (whole entry): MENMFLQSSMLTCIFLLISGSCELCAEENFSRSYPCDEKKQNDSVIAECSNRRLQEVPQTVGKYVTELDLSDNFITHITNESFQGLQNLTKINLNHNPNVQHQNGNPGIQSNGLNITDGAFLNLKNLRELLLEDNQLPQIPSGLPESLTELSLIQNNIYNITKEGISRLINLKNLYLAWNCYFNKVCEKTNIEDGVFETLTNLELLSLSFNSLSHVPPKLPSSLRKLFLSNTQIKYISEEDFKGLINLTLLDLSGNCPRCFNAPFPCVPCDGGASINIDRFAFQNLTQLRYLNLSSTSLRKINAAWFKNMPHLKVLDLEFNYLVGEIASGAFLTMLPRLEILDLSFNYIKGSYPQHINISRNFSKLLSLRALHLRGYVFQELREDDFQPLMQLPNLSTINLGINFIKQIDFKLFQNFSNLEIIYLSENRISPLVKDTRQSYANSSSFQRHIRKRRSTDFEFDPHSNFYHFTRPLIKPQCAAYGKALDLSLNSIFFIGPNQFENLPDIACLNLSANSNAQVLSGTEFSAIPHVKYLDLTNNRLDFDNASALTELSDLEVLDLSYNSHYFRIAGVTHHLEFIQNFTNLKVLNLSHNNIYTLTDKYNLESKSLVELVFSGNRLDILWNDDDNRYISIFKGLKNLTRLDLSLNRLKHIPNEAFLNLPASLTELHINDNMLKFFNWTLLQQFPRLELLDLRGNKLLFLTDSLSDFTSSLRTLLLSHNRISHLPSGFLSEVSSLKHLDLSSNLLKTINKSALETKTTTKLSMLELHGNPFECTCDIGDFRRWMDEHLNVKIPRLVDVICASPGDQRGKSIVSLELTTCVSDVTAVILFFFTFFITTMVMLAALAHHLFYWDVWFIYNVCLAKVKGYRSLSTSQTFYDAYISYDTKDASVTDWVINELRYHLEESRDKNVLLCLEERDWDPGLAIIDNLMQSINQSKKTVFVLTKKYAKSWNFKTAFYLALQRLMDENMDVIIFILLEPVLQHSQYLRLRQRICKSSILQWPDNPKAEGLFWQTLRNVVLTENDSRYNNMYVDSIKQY
Put plainly: Antagonist activity at human TLR8 expressed in HEK-Blue cells assessed as reduction in CL075-induced NF-kappaB activation at 10 to 25 uM incubated for 1 hr followed by CL075-stimulation and measured after 24 hrs by quanti-blue SEAP assay relative to control. Type of experiment: cell-based.

Experiment [3] has as its system THP-1. Put plainly: Antiinflammatory activity in human THP1 cells assessed as reduction in CL075-induced TNF secretion at 10 to 25 uM preincubated for 1 hr followed by CL075-stimulation and measured after 4 hrs by ELISA relative to control. Type of experiment: functional. A general note: An ELISA detects its analyte on a solid surface through an enzyme-linked reagent.

Experiment [4] concerns the target Toll-like receptor 3 (Homo sapiens) (UniProt O15455). Put plainly: […] at TLR3 in human THP1 cells assessed as inhibition of poly(A:U)-induced IL-8 secretion preincubated for 1 hr followed by poly(A:U)-stimulation and measured after 24 hrs by ELISA. The class given is cell-based.
The target in experiment [5] is T2, Toll-like receptor 7 (Homo sapiens) (UniProt Q9NYK1).
T2 sequence (whole entry): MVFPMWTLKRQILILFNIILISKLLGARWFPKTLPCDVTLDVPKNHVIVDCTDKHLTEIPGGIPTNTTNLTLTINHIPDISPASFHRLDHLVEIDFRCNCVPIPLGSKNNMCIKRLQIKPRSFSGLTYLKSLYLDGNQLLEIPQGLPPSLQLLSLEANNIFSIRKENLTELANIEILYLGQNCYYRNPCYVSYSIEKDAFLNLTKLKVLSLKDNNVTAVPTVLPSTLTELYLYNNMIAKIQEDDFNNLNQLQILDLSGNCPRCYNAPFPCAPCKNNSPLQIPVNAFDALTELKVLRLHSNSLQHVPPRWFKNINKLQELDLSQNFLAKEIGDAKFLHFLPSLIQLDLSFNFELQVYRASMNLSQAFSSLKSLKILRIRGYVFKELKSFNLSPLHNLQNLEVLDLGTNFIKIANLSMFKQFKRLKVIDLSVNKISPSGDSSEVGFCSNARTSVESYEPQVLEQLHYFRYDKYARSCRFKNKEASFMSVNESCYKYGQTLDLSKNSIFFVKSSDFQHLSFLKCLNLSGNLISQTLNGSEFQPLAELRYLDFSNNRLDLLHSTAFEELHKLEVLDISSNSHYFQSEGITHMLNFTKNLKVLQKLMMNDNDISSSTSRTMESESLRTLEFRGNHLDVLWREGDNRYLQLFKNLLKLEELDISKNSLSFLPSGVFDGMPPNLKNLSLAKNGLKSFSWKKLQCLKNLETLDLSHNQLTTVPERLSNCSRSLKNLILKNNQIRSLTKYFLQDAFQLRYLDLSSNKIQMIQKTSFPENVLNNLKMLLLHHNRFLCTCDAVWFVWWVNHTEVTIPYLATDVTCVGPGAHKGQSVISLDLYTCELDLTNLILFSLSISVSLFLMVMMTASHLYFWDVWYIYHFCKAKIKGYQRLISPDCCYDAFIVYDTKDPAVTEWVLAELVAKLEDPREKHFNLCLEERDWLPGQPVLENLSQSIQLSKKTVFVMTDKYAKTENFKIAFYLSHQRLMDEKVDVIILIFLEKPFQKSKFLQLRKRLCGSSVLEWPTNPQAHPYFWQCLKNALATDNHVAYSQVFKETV
Nature of the experiment: Antagonist activity at human TLR7 expressed in HEK-Blue cells assessed as inhibition of CL075-induced NF-kappaB activation incubated for 1 hr followed by CL075-stimulation and measured after 24 hrs by quanti-blue SEAP assay. Type of experiment: cell-based.

The target in experiment [6] is T1, Toll-like receptor 8 (Homo sapiens). Nature of the experiment: Antagonist activity at human TLR8 expressed in HEK-Blue cells assessed as reduction in CL075-induced NF-kappaB activation at 25 uM incubated for 1 hr followed by CL075-stimulation and measured after 24 hrs by quanti-blue SEAP assay relative to control. The class given is cell-based.
In experiment [7] the target is Toll-like receptor 2 (Homo sapiens) (UniProt O60603). Put plainly: Antagonist activity at TLR2 in human THP1 cells assessed as inhibition of Pam2CSK4/Pam3CSK4-induced IL-8 secretion preincubated for 1 hr followed by Pam2CSK4/Pam3CSK4 stimulation and measured after 24 hrs by ELISA. Type of experiment: cell-based.
Toll-like receptor 2 (Homo sapiens), sequence (O60603 whole entry): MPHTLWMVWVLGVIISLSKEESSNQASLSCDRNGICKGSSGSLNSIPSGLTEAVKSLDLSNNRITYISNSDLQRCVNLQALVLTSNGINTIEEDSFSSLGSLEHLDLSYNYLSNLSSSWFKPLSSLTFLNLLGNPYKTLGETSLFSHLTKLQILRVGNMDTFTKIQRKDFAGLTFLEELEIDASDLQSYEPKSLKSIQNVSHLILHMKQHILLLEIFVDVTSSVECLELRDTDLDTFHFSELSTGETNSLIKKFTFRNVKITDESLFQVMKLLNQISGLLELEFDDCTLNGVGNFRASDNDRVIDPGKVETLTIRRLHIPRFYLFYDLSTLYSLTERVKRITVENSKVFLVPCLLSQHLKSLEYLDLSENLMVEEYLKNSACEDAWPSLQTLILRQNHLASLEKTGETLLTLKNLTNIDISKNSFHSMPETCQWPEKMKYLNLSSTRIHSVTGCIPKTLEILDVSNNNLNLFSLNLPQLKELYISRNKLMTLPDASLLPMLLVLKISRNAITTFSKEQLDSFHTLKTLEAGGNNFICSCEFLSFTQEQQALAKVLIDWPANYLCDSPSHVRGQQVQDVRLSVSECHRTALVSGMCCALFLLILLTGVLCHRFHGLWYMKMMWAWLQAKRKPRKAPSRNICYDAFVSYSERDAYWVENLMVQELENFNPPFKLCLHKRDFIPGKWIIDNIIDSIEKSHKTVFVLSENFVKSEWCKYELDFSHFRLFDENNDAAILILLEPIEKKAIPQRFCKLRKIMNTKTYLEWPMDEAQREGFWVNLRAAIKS
Experiment [8] has as its target T1, Toll-like receptor 8 (Homo sapiens). Nature of the experiment: Activation of human TLR8 expressed in HEK-Blue cells assessed as increase in NF-kappaB activation at 5 to 25 uM incubated for 24 hrs by quanti-blue SEAP assay. The class given is cell-based.
The target of experiment [9] is Toll-like receptor 5 (Homo sapiens) (UniProt O60602). Put plainly: […] at TLR5 in human THP1 cells assessed as inhibition of flagellin-induced IL-8 secretion preincubated for 1 hr followed by flagellin stimulation and measured after 24 hrs by ELISA. The class given is cell-based.
Toll-like receptor 5 (Homo sapiens), sequence (O60602 whole entry): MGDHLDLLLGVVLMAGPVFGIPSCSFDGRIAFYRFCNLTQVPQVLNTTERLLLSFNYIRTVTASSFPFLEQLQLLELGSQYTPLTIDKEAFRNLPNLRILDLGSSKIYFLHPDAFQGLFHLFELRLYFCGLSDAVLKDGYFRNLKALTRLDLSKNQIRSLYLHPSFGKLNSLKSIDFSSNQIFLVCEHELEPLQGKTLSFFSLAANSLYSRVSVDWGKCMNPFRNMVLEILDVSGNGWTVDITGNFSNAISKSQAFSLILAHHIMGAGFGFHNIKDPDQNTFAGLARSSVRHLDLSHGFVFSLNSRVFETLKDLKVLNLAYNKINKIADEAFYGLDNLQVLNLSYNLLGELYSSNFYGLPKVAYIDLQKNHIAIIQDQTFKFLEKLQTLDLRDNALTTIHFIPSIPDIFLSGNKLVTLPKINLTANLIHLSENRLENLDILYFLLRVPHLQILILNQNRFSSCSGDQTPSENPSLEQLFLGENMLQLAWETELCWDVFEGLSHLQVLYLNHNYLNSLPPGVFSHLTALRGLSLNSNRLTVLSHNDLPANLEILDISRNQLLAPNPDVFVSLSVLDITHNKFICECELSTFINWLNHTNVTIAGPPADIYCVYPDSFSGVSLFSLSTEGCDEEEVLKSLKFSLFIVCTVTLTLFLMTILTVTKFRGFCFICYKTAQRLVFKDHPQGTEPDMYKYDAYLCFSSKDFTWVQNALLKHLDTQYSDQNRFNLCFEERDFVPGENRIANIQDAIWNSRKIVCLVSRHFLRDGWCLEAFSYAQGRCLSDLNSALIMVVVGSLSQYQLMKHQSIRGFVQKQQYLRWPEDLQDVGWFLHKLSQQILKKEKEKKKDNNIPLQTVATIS

Toll-like receptor 3 (Homo sapiens), sequence (O15455 whole entry): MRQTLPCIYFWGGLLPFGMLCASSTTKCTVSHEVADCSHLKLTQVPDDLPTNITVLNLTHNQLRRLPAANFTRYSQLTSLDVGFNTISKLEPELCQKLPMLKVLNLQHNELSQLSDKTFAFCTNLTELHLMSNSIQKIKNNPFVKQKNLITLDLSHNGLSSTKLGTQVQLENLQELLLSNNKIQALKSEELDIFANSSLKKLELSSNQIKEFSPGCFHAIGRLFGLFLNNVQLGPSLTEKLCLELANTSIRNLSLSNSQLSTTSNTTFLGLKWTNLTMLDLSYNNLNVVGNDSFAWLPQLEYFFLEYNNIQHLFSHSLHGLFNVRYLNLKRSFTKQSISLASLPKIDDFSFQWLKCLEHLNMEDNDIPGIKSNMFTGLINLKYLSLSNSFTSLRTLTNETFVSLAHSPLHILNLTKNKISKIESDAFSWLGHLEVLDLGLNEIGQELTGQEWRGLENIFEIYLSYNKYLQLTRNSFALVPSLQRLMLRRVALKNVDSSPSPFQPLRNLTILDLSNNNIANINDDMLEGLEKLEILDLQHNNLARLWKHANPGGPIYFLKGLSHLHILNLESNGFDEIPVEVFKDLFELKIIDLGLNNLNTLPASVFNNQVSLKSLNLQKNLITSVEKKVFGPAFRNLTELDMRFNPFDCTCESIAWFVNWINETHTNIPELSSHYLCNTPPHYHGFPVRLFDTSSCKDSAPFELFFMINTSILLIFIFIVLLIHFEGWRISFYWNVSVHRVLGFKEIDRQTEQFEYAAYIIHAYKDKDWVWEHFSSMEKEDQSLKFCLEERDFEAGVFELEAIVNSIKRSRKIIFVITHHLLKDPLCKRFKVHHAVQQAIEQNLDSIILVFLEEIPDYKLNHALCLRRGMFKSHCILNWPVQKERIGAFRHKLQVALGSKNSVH

On to `FC(F)(F)c1cc(-c2ccccc2)nc(NCc2cccs2)n1`, for which the inhibition entry in [1], in experiment [4], in [5], in experiment [7] and in experiment [9] was “inactive” each time. The inhibition in [2] was 100%; in experiment [6] it was below 50%. Further, the “inhibition (INH)” value in [3] came to 40%. In experiment [8], the result was inactive.
For `FC(F)(F)c1cc(-c2ccco2)nc(NCc2cccs2)n1`, the inhibition entry in experiment [1], in [4], in experiment [5], in experiment [7] and in [9] was “inactive” each time. Further, the inhibition is 50% in [2] and below 50% in experiment [6]. In experiment [3], the “inhibition (INH)” value is listed as 40%. For the same compound, the result in [8] was inactive.
Regarding `CCCCNc1nc(-c2cccs2)cc(C(F)(F)F)n1`, the inhibition entry in [1], in experiment [4], in [5], in experiment [7] and in experiment [9] was “inactive” each time. Also, the inhibition in experiment [2] was 100%; in [6] it was below 50%. Besides, in [3], the “inhibition (INH)” value is recorded as above 60%. Further, in experiment [8], the result was inactive.

In general, inhibition refers to the relative decrease from the control value, in per cent.
